Source: patent publication US6340670B1, “Acetal benzylmaltosides as inhibitors of smooth muscle cell proliferation” (American Home Products Corporation, priority 1998, dated 2002)

Tested on: Porcine Smooth Muscle Cell
Experiment: Effects of Compounds on Cell Proliferation Using 3H Thymidine Incorporation
Type: cell-based
Conditions: serum/growth factor stimulated cells, 24-36 h incubation, read-out: Porcine Smooth Muscle Cell Antiproliferation IC50
Experimental: Effects of Compounds on Cell Proliferation Using ^3H Thymidine Incorporation
Human and porcine smooth muscle cells were tested in early passage (generally passage 3-7) at sub-confluent conditions. Cultures were grown in 16 mm (24 well) multi-well culture dishes in medium 199 supplemented with 10% fetal bovine serum and 2% antibiotic/antimycotic. At sub-confluence, the cells were placed in a defined serum free medium (AIM-V; Gibco) for 24-48 h prior to initiating the experimental protocol.
Compounds were added to each well at 50 fold dilution (20 μL/well) and the plates were incubated for 24-36 h at 37° C. in 5% CO2. Compounds were initially dissolved in 50% ethanol and serially diluted into media. Compounds were routinely evaluated at concentrations from 1 to 100 μM. As a control, grade II porcine intestinal mucosal heparin (sodium salt) was routinely evaluated in all cell preparations at concentrations from 0.1 to 100 μg/mL.
At the completion of the test procedure, plates were placed on ice, washed three times with ice cold phosphate buffered saline (PBS) and incubated in ice cold 10% trichloroacetic acid (TCA) got 30 min to remove acid soluble proteins. Solution was transferred to scintillation vials containing 0.4 N HCl (500 μL/vial to neutralize NaOH) and each well was rinsed two times with water (500 μL) for a total volume of 2 mL/vial.
Data was obtained, in triplicate, for both control and experimental samples. Control (100%) data was obtained from maximally stimulated cells, as the result of growth factor or serum stimulation. Experimental data was obtained from cells maximally stimulated with growth factor or serum and treated with compound. Data are expressed as an IC50 or percent inhibition in Table I below.

## CC(=O)Nc1cc(CO[C@@H]2O[C@H](COC(=O)c3ccccc3)[C@@H](O[C@H]3O[C@@H]4COC(c5ccccc5)O[C@H]4[C@H](O)[C@H]3O)[C@H](O)[C@H]2O)ccc1Cl (stereo partly drawn) [Example 26, N-{5-[(6-O-Benzoyl-4′,6′-O-benzylidene-β-D-maltosyl-oxy)-methyl]-2-chloro-phenyl}-acetamide]
  IC50: 10 to 30 nM

## CC(=O)Nc1cc(CO[C@@H]2O[C@H](COC(=O)c3ccccc3)[C@@H](O[C@@H]3O[C@@H]4CO[C@@H](c5ccccc5)O[C@H]4[C@H](OC(C)=O)[C@H]3OC(C)=O)[C@H](OC(C)=O)[C@H]2OC(C)=O)ccc1Cl [Example 27, (R)-N-[2-Chloro-5-[[[2,3-di-O-acetyl-6-O-benzoyl-4-O-[2,3-di-O-acetyl-4,6-O-(phenylmethylene)-β-D-glucopyranoysl]-β-D-glucopyranosyl]oxy]-methyl]-phenyl]acetamide]
  IC50: 70 nM

## COC(=O)CCCC(=O)OCC1OC(OCc2ccc(Cl)c(NC(C)=O)c2)C(O)C(O)C1OC1OC2COC(c3ccccc3)OC2C(O)C1O [Example 28, (R)-N-[2-Chloro-5-[[[6-O-(5-methoxy-1,5-dioxopentyl)-4-O-[4,6-O-(phenylmethylene)-α-D-glucopyranoysl]-β-D-gluconyranosyl]oxy]methyl]-phenyl]acetamide]
  IC50: 400 nM

## O=[N+]([O-])c1cc(COC2OC(CO)C(OC3OC4COC(c5ccccc5)OC4C(O)C3O)C(O)C2O)ccc1Cl [Example 29, 4-Chloro-3-nitro-benzyl-4′,6′-O-benyzlidene-β-D-maltoside]
  IC50: 44100 nM

## O=C(OCC1OC(OCc2ccc(Cl)c([N+](=O)[O-])c2)C(O)C(O)C1OC1OC2COC(c3ccccc3)OC2C(O)C1O)c1ccccc1 [Example 30, 4-Chloro-3-nitro-benzyl-6-O-benzoyl-4′,6′-O-benyzlidene-β-D-maltoside]
  IC50: 351 nM

## CC(=O)OC1C(OC2C(COC(=O)c3ccccc3)OC(OCc3ccc(Cl)c([N+](=O)[O-])c3)C(OC(C)=O)C2OC(C)=O)OC2COC(c3ccccc3)OC2C1OC(C)=O [Example 31, (R)-(4-Chloro-3-nitrophenyl)methyl-2,3-di-O-acetyl-6-O-benzoyl-4-O-[2,3-di-O-acetyl-4,6-O-(phenylmethylene)-α-D-glucopyranosyl]-β-D-glucopyranoside]
  IC50: 380 nM

## CC(=O)OC1C(OC2C(COC(=O)c3cccnc3)OC(OCc3ccc(Cl)c([N+](=O)[O-])c3)C(OC(C)=O)C2OC(C)=O)OC2COC(c3ccccc3)OC2C1OC(C)=O [Example 33, (R)-(4-Chloro-3-nitrophenyl)methyl 4-[2,3-di-O-acetyl-4,6-O-(phenylmethylene)-α-D-glucopyranosyl]-β-D-glucopyranoside 2,3-diacetate 6-(3-pyridinecarboxylate)]
  IC50: 312 nM

## CC(=O)Nc1cc(COC2OC(COC(=O)c3ccc(Cl)c([N+](=O)[O-])c3)C(OC3OC4COC(c5ccccc5)OC4C(O)C3O)C(O)C2O)ccc1Cl [Example 38, (R)-N-[2-Chloro-5-[[[6-O-(4-chloro-3-nitrobenzoyl)-4-O-[4,6O-(phenylmethylene)-α-D-glucopyranosyl]-β-D-glucopyranosyl]oxy]methyl]phenyl]acetamide]
  IC50: 187 nM

## CC(=O)Nc1cc(COC2OC(COC(=O)c3ccc(Cl)c([N+](=O)[O-])c3)C(OC3OC4COC(c5ccccc5)OC4C(O)C3OC(C)=O)C(OC(C)=O)C2OC(C)=O)ccc1Cl [Example 39, N-{5-[(2,2′,3,-Tri-O-Acetyl-6-O-(4-chloro-3-nitrobenzoyl)-4′,6′-O-(benzylidene)-β-D-maltosyl)-oxymethyl]-2-chloro-phenyl)-acetamide]
  IC50: 2530 nM

## CC(=O)Nc1cc(COC2OC(COC(=O)c3ccc(C#N)cc3)C(OC3OC4COC(c5ccccc5)OC4C(O)C3O)C(O)C2O)ccc1Cl [Example 40, (R)-N-[2-Chloro-5-[[[6-O-(4-cyanobenzoyl)-4-O-[4,6O-(phenylmethylene)-α-D-glucopyranosyl]-β-D-glucopyranosyl]oxy]methyl]phenyl]acetamide]
  IC50: 92 nM

## CC(=O)Nc1cc(COC2OC(COC(=O)c3ccc([N+](=O)[O-])cc3)C(OC3OC4COC(c5ccccc5)OC4C(O)C3O)C(O)C2O)ccc1Cl [Example 41, (R)-N-[2-Chloro-5-[[[6-O-(4-nitrobenzoyl)-4-O-[4,6O-(phenylmethylene)-α-D-glucopyranosyl]-β-D-glucopyranosyl]oxy]methyl]phenyl]acetamide]
  IC50: 273 nM

## CC(=O)Nc1cc(COC2OC(COC(=O)c3cccc(C(F)(F)F)c3)C(OC3OC4COC(c5ccccc5)OC4C(O)C3O)C(O)C2O)ccc1Cl [Example 42, (R)-N-[2-Chloro-5-[[[6-O-(3-trifluoromethylbenzoyl)-4-O-[4,6O-(phenyl-methylene)-α-D-glucopyranosyl]-β-D-glucopyranosyl]oxy]methyl]phenyl]acetamide]
  IC50: 27 nM

## CC(=O)Nc1cc(COC2OC(COC(=O)c3ccccc3I)C(OC3OC4COC(c5ccccc5)OC4C(O)C3O)C(O)C2O)ccc1Cl [Example 43, N-{5-[(4′,6′-O-Benzylidene-6-O-(2-iodo)-benzoyl-β-D-maltosyl)-oxy-methyl]-2-chloro-phenyl)-acetamide]
  IC50: 8 nM

## CC(=O)Nc1cc(COC2OC(COC(=O)c3cccc(I)c3)C(OC3OC4COC(c5ccccc5)OC4C(O)C3O)C(O)C2O)ccc1Cl [Example 44, N-{5-[(4′,6′-O-Benzylidene-6-O-(3-iodo)-benzoyl-β-D-maltosyl)-oxy-methyl]-2-chloro-phenyl}-acetamide]
  IC50: 62 nM

## CC(=O)Nc1cc(COC2OC(COC(=O)c3ccc(I)cc3)C(OC3OC4COC(c5ccccc5)OC4C(O)C3O)C(O)C2O)ccc1Cl [Example 45, N-{5-[(4′,6′-O-Benzylidene-6-(4-iodo-benzoyl)-oxy-β-D-maltosyl)-oxy-methyl]-2-chloro-phenyl}-acetamide]
  IC50: 6440 nM

## CC(=O)Nc1cc(COC2OC(COC(=O)Cc3ccccc3)C(OC3OC4COC(c5ccccc5)OC4C(O)C3O)C(O)C2O)ccc1Cl [Example 46, (R)-N-[-2-Chloro-5-[[[6-O-(phenylacetyl)-4-O-[4,6-O-(phenylmethylene)-α-D-glucopyranosyl]-β-D-glucopyranosyl]oxy]methyl]phenyl]acetamide]
  IC50: 32 nM

## CC(=O)Nc1cc(COC2OC(COC(=O)Cc3ccccc3)C(OC3OC4COC(c5ccccc5)OC4C(OC(C)=O)C3OC(C)=O)C(OC(C)=O)C2OC(C)=O)ccc1Cl [Example 47, (R)-N-[2-Chloro-5-[[[2,3-di-O-acetyl-4-O-[2,3-di-O-acetyl-4,6-O-(phenylmethylene)-α-D-glucopyranosyl]-6-O-(phenylacetyl)-β-D-glucopyranosyl]-oxy]methyl]phenyl]acetamide]
  IC50: 78 nM

## CC(=O)Nc1cc(CO[C@@H]2O[C@H](COC(=O)CCc3ccccc3)[C@@H](O[C@H]3O[C@@H]4COC(c5ccccc5)O[C@H]4[C@H](O)[C@H]3O)[C@H](O)[C@H]2O)ccc1Cl (stereo partly drawn) [Example 48, N-{5-[(4′,6′-O-Benzylidene-6-O-phenyl-ethyl-carboxyl-β-D-maltosyl)-oxy-methyl]-2-chloro-phenyl}-acetamide]
  IC50: 7 nM

## CC(=O)Nc1cc(COC2OC(COC(=O)CCCc3ccccc3)C(OC3OC4COC(c5ccccc5)OC4C(O)C3O)C(O)C2O)ccc1Cl [Example 49, N-{5-[(4′,6′-O-Benzylidene-6-O-phenyl-propyl-carboxyl-β-D-maltosyl)-oxy-methyl]-2-chloro-phenyl}-acetamide]
  IC50: 104 nM

## CC(=O)Nc1cc(COC2OC(COC(=O)c3cccnc3)C(OC3OC4COC(c5ccccc5)OC4C(O)C3O)C(O)C2O)ccc1Cl (stereo not drawn) [Example 54, Nicotinic acid 6-(3-acetylamino-4-chloro-benzyloxy)-3-(7,8-dihydroxy-2-phenyl-hexahydro-pyrano[32-d][1,3]dioxin-6-yloxy)-4,5-dihydroxy-tetrahydro-pyran-2-ylmethyl ester]
  IC50: 211 nM

## CC(=O)Nc1cc(COC2OC(COC(=O)c3ccc(C(=O)c4ccccc4)cc3)C(OC3OC4COC(c5ccccc5)OC4C(O)C3O)C(O)C2O)ccc1Cl [Example 56, (R)-N-[5-[[[6-O-(4-Benzoylbenzoyl)-4-O-[4,6-O-(phenylmethylene)-α-D-glucopyranosyl]-β-D-glucopyranosyl]oxy]methyl]-2-chlorophenyl]acetamide]
  IC50: 530 nM

## CC(=O)Nc1cc(COC2OC(CO)C(OC3OC4COC(c5ccccc5)OC4C(O)C3O)C(O)C2O)ccc1C [Example 57, N-{5-[(4′,6′-O-Benzylidene-β-D-maltosyl)-oxy-methyl]-2-methyl-phenyl}-acetamide]
  IC50: 8900 nM

## CC(=O)OCC1OC(OCc2ccc(C)c(N(C(C)=O)C(C)=O)c2)C(OC(C)=O)C(OC(C)=O)C1OC1OC2COC(c3ccccc3)OC2C(OC(C)=O)C1OC(C)=O [Example 58, N-Acetyl-{5-[(2,2′,3,3′,6-penta-O-acetyl-4′,6′-O-benzylidene-β-D-maltosyl)-oxy-methyl]-2-methyl-phenyl}acetamide]
  IC50: 600 nM

## CC(=O)Nc1cc(COC2OC(COS(=O)(=O)c3ccc(C)cc3)C(OC3OC4COC(c5ccccc5)OC4C(O)C3O)C(O)C2O)ccc1C [Example 59, N-(5-{[4′,6′-O-Benzylidene-6-O-(4-toluenesulfonyl)-β-D-maltosyl]-oxy-methyl}-2-methyl-phenyl)-acetamide]
  IC50: 490 nM
